# Source: PubChem BioAssay (NCI)
#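 96-well plates; 48 h exposure; 5 concentrations. Endpoints by linear interpolation between flanking doses. Not reached: highest tested concentration assigned. TGI marks complete inhibition of growth.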
# How the values were obtained:
# Test in all cases: DTP human tumour cell line panel, 48 h
# MDA-MB-231 breast = tested on: MDA-MB-231 breast
# NCI-H23 lung = tested on: NCI-H23 lung
# IGROV1 ovarian = tested on: IGROV1 ovarian
# UACC-257 melanoma = tested on: UACC-257 melanoma
# SF-295 CNS = tested on: SF-295 CNS
# T-47D breast = tested on: T-47D breast
# U251 CNS = tested on: U251 CNS
# NCI-H522 lung = tested on: NCI-H522 lung
# OVCAR-5 ovarian = tested on: OVCAR-5 ovarian
# HCT-15 colon = tested on: HCT-15 colon
# MDA-N = tested on: MDA-N
# CCRF-CEM leukemia = tested on: CCRF-CEM leukemia
# M14 melanoma = tested on: M14 melanoma
# A549 NSCLC = tested on: A549 NSCLC
# K-562 leukemia = tested on: K-562 leukemia
# ACHN renal = tested on: ACHN renal
# SR leukemia = tested on: SR leukemia
# COLO 205 colon = tested on: COLO 205 colon
# MCF7 breast = tested on: MCF7 breast
# OVCAR-8 ovarian = tested on: OVCAR-8 ovarian
# SK-OV-3 ovarian = tested on: SK-OV-3 ovarian
# SN12C renal = tested on: SN12C renal
# LOX IMVI melanoma = tested on: LOX IMVI melanoma
# SNB-19 CNS = tested on: SNB-19 CNS
# DU-145 prostate = tested on: DU-145 prostate
# NCI-H226 lung = tested on: NCI-H226 lung
# RPMI-8226 leukemia = tested on: RPMI-8226 leukemia
# OVCAR-4 ovarian = tested on: OVCAR-4 ovarian
# HOP-92 NSCLC = tested on: HOP-92 NSCLC
# TK-10 renal = tested on: TK-10 renal
# NCI-H460 lung = tested on: NCI-H460 lung
# HT29 colon = tested on: HT29 colon
# UO-31 renal = tested on: UO-31 renal
# HOP-62 NSCLC = tested on: HOP-62 NSCLC
# HCT-116 colon = tested on: HCT-116 colon
# SK-MEL-2 melanoma = tested on: SK-MEL-2 melanoma
# SK-MEL-5 melanoma = tested on: SK-MEL-5 melanoma
# CAKI-1 renal = tested on: CAKI-1 renal
# OVCAR-3 ovarian = tested on: OVCAR-3 ovarian
# SK-MEL-28 melanoma = tested on: SK-MEL-28 melanoma
# PC-3 prostate = tested on: PC-3 prostate
# HCC-2998 colon = tested on: HCC-2998 colon
# HS 578T breast = tested on: HS 578T breast
# HL-60(TB) leukemia = tested on: HL-60(TB) leukemia
# SW-620 colon = tested on: SW-620 colon
# NCI/ADR-RES ovarian = tested on: NCI/ADR-RES ovarian
# SNB-75 CNS = tested on: SNB-75 CNS
# MDA-MB-435 = tested on: MDA-MB-435
# BT-549 breast = tested on: BT-549 breast
# UACC-62 melanoma = tested on: UACC-62 melanoma
# EKVX NSCLC = tested on: EKVX NSCLC
# A498 renal = tested on: A498 renal
# SF-539 CNS = tested on: SF-539 CNS
# KM12 colon = tested on: KM12 colon
# MOLT-4 leukemia = tested on: MOLT-4 leukemia
# SF-268 CNS = tested on: SF-268 CNS
# 786-0 renal = tested on: 786-0 renal
# MALME-3M melanoma = tested on: MALME-3M melanoma
structure (smiles),measurement,setting,value
CCP(=S)(CC)CCl,TGI,MDA-MB-231 breast,> 100 µM
same,TGI,NCI-H23 lung,> 100 µM
same,TGI,IGROV1 ovarian,> 100 µM
same,TGI,UACC-257 melanoma,> 100 µM
same,TGI,SF-295 CNS,> 100 µM
same,TGI,T-47D breast,> 100 µM
same,TGI,U251 CNS,> 100 µM
same,TGI,NCI-H522 lung,> 100 µM
same,TGI,OVCAR-5 ovarian,> 100 µM
same,TGI,HCT-15 colon,> 100 µM
same,TGI,MDA-N,> 100 µM
same,TGI,CCRF-CEM leukemia,> 100 µM
same,TGI,M14 melanoma,> 100 µM
same,TGI,A549 NSCLC,> 100 µM
same,TGI,K-562 leukemia,> 100 µM
same,TGI,ACHN renal,> 100 µM
same,TGI,SR leukemia,> 100 µM
same,TGI,COLO 205 colon,> 100 µM
same,TGI,MCF7 breast,> 100 µM
same,TGI,OVCAR-8 ovarian,> 100 µM
same,TGI,SK-OV-3 ovarian,> 100 µM
same,TGI,SN12C renal,> 100 µM
same,TGI,LOX IMVI melanoma,> 100 µM
same,TGI,SNB-19 CNS,> 100 µM
same,TGI,DU-145 prostate,> 100 µM
same,TGI,NCI-H226 lung,> 100 µM
same,TGI,RPMI-8226 leukemia,> 100 µM
same,TGI,OVCAR-4 ovarian,> 100 µM
same,TGI,HOP-92 NSCLC,> 100 µM
same,TGI,TK-10 renal,> 100 µM
same,TGI,NCI-H460 lung,> 100 µM
same,TGI,HT29 colon,> 100 µM
same,TGI,UO-31 renal,> 100 µM
same,TGI,HOP-62 NSCLC,> 100 µM
same,TGI,HCT-116 colon,> 100 µM
same,TGI,SK-MEL-2 melanoma,> 100 µM
same,TGI,SK-MEL-5 melanoma,> 100 µM
same,TGI,CAKI-1 renal,> 100 µM
same,TGI,OVCAR-3 ovarian,> 100 µM
same,TGI,SK-MEL-28 melanoma,> 100 µM
same,TGI,PC-3 prostate,> 100 µM
same,TGI,HCC-2998 colon,> 100 µM
same,TGI,HS 578T breast,> 100 µM
same,TGI,HL-60(TB) leukemia,> 100 µM
same,TGI,SW-620 colon,> 100 µM
same,TGI,NCI/ADR-RES ovarian,> 100 µM
same,TGI,SNB-75 CNS,> 100 µM
Cc1nn(C(=O)Cc2ccccc2)c2c1C(c1ccc3ccccc3c1O)SC(N)=N2 (configuration not stated),TGI,MDA-MB-231 breast,> 100 µM
same,TGI,MDA-MB-435,> 100 µM
same,TGI,BT-549 breast,> 100 µM
same,TGI,NCI-H23 lung,> 100 µM
same,TGI,IGROV1 ovarian,> 100 µM
same,TGI,UACC-62 melanoma,> 100 µM
same,TGI,UACC-257 melanoma,> 100 µM
same,TGI,SF-295 CNS,> 100 µM
same,TGI,T-47D breast,> 100 µM
same,TGI,EKVX NSCLC,> 100 µM
same,TGI,NCI-H522 lung,> 100 µM
same,TGI,HCT-15 colon,> 100 µM
same,TGI,MDA-N,> 100 µM
same,TGI,CCRF-CEM leukemia,64.2 µM
same,TGI,M14 melanoma,> 100 µM
same,TGI,A549 NSCLC,> 100 µM
same,TGI,K-562 leukemia,> 100 µM
same,TGI,ACHN renal,> 100 µM
same,TGI,SR leukemia,> 100 µM
same,TGI,COLO 205 colon,> 100 µM
same,TGI,MCF7 breast,> 100 µM
same,TGI,OVCAR-8 ovarian,> 100 µM
same,TGI,A498 renal,> 100 µM
same,TGI,SK-OV-3 ovarian,> 100 µM
same,TGI,SN12C renal,> 100 µM
same,TGI,LOX IMVI melanoma,> 100 µM
same,TGI,SNB-19 CNS,> 100 µM
same,TGI,DU-145 prostate,> 100 µM
same,TGI,NCI-H226 lung,> 100 µM
same,TGI,SF-539 CNS,> 100 µM
same,TGI,RPMI-8226 leukemia,> 100 µM
same,TGI,TK-10 renal,> 100 µM
same,TGI,NCI-H460 lung,> 100 µM
same,TGI,HT29 colon,> 100 µM
same,TGI,UO-31 renal,> 100 µM
same,TGI,HOP-62 NSCLC,> 100 µM
same,TGI,KM12 colon,> 100 µM
same,TGI,HCT-116 colon,> 100 µM
same,TGI,SK-MEL-5 melanoma,> 100 µM
same,TGI,CAKI-1 renal,> 100 µM
same,TGI,MOLT-4 leukemia,> 100 µM
same,TGI,SK-MEL-28 melanoma,> 100 µM
same,TGI,PC-3 prostate,> 100 µM
same,TGI,HCC-2998 colon,> 100 µM
same,TGI,HS 578T breast,> 100 µM
same,TGI,HL-60(TB) leukemia,> 100 µM
same,TGI,SF-268 CNS,> 100 µM
same,TGI,SW-620 colon,> 100 µM
same,TGI,SNB-75 CNS,> 100 µM
O=[N+]([O-])c1ccc2nc3n(c2c1)C(c1c(F)cccc1F)SC3 (configuration not stated),TGI,MDA-MB-231 breast,> 100 µM
same,TGI,NCI-H23 lung,> 100 µM
same,TGI,IGROV1 ovarian,> 100 µM
same,TGI,UACC-257 melanoma,> 100 µM
same,TGI,SF-295 CNS,> 100 µM
same,TGI,T-47D breast,> 10 µM
same,TGI,U251 CNS,> 100 µM
same,TGI,EKVX NSCLC,> 100 µM
same,TGI,OVCAR-5 ovarian,> 100 µM
same,TGI,MDA-N,> 100 µM
same,TGI,CCRF-CEM leukemia,> 100 µM
same,TGI,A549 NSCLC,> 10 µM
same,TGI,K-562 leukemia,> 10 µM
same,TGI,ACHN renal,> 100 µM
same,TGI,SR leukemia,> 100 µM
same,TGI,MCF7 breast,> 100 µM
same,TGI,OVCAR-8 ovarian,> 10 µM
same,TGI,A498 renal,> 100 µM
same,TGI,SK-OV-3 ovarian,> 100 µM
same,TGI,SN12C renal,> 100 µM
same,TGI,LOX IMVI melanoma,> 100 µM
same,TGI,SNB-19 CNS,> 100 µM
same,TGI,DU-145 prostate,> 100 µM
same,TGI,NCI-H226 lung,> 100 µM
same,TGI,786-0 renal,> 100 µM
same,TGI,RPMI-8226 leukemia,> 10 µM
same,TGI,TK-10 renal,> 100 µM
same,TGI,NCI-H460 lung,> 100 µM
same,TGI,HT29 colon,> 100 µM
same,TGI,HOP-62 NSCLC,> 100 µM
same,TGI,KM12 colon,> 100 µM
same,TGI,HCT-116 colon,> 100 µM
same,TGI,MALME-3M melanoma,> 100 µM
same,TGI,SK-MEL-5 melanoma,> 10 µM
same,TGI,MOLT-4 leukemia,> 100 µM
same,TGI,OVCAR-3 ovarian,> 100 µM
same,TGI,SK-MEL-28 melanoma,> 100 µM
same,TGI,PC-3 prostate,> 100 µM
same,TGI,HS 578T breast,> 100 µM
same,TGI,SW-620 colon,> 100 µM
same,TGI,NCI/ADR-RES ovarian,> 100 µM
